The subject of assay [1] is MP4 cells (Mitchell diploid petunia). The assay can be described thus: MP4 suspension culture in MS media containing glyphosate. It counts as cell-based. The conditions noted are these: 0.5 mM glyphosate (sodium salt) in MS media, estimated; read-out: cells which survived, share of the starting population. On the procedure:
The starting cell line, designated as the MP4 line, was derived from a Mitchell diploid petunia (see e.g., Ausubel 1980). The MP4 cells were suspended in Murashige and Skoog (MS) culture media, (GIBCO, Grand Island, N.Y.) All transfers involved dispensing 10 ml of suspension cultures into 50 ml of fresh media. Cultivation periods until the next transfer ranged from 10 to 14 days, and were based on visual indications that the culture was approaching saturation.
Approximately 10 ml of saturated suspension culture (containing about 5×10^6 cells) were transferred into 50 ml of MS media containing 0.5 mM glyphosate. The sodium salt of glyphosate was used throughout the experiments described herein. The large majority of cells were unable to reproduce in the presence of the glyphosate. The cells which survived (estimated to be less than 1% of the starting population) were cultured in 0.5 mM glyphosate and transferred to fresh media containing glyphosate every 10 to 14 days.

A further assay concerns wild type callus. Description: Growth of wild type callus on glyphosate. It counts as cell-based, Brassica napus. The conditions noted are these: 0.5 mM glyphosate.
The subject of the next assay is E coli 11303 SM-1. The assay can be described thus: Growth of mutant E. coli in medium containing glyphosate. As to conditions: 10 mM or higher glyphosate in the growth medium. It counts as cell-based. On the procedure:
Cells of E. coli ATCC 11303 were transferred to medium A and incubated at 37° C.
This mutant bacterium was designated E coli 11303 SM-1. The AroA gene encoding EPSP synthase from this mutant bacterium was isolated as follows.

Assay [2] has as its system petunia plants transformed with chimeric EPSP synthase gene (pMON546). Description: Plant response to glyphosate spraying, transformed plants. It counts as in vivo. As to conditions: 0.8 #/acre acid equivalent, isopropylamine salt sprayed. How it is done: (§1) Four individual representative transgenic seedlings were selected, grown and tested in the testing procedure described below, along with four individual non-transformed (wild-type) petunia seedlings.
(§2) The plants were grown in a growth medium in a growth chamber at 26° C. with 12 hours of light per day. The plants were fertilized weekly with a soluble fertilizer and watered as needed. The plants were sprayed at a uniform and reproducible delivery rate of herbicide by use of an automated track sprayer. The glyphosate solution used was measured as pounds of glyphosate acid equivalents per acre, mixed as the glyphosate isopropylamine salt, with an ionic surfactant.
(§3) Four individual wild-type (non-transformed) petunia plants were selected for use as control plants. Four individual transformed plants containing the pMON546 vector were selected by kanamycin resistance as described in Horsch et al. (1985).
(§4) The control plants and the transformed plants were sprayed with the isopropylamine salt of glyphosate at the application level listed in Table 2 below; the experimental results obtained are also summarized in Table 2.

Assay [3] addresses T1, wild-type EPSP synthase of tomato (Solanum lycopersicum, UniProt P10748).
T1 construct: ATG translational initiation codon at the site predicted to be the start of the mature enzyme for in vitro expression in E. Coli; initiator methionine (ATG in an engineered NcoI site) (N); made in house; host or cells: E. coli SR481 (aroA mutant) harboring pMON9719, desalted cell extract
Description: EPSP synthase activity assay, extracts of E. coli SR481 harboring pMON9719. It counts as biochemical. How it is done:
E. coli SR481 cells harboring pMON9719 or pMON9729 were grown under conditions which induce the expression of the RecA promoter. The cells were lysed and the extracts were assayed for EPSP synthase activity.
Specifically, the bacterial cell paste was washed twice with 0.9% saline, suspended in buffer (100 mM Tris-HCl, 5 mM dithiothreitol, 1 mM EDTA, 10% glycerol and 1 mM benzamidine HCl) passed twice through the French Pressure Cell at 1000 psi. The cell abstract was separated from the cells by centrifuging at 15,000×gravity for 10 mins. at 5° C. It was desalted using Sephadex G-50 (Pharmacia, Piscataway, N.J.). The desalted extract was assayed for EPSP synthase activity as follows:
To an assay mix (40 μl) containing shikimate-3-phosphate (2 mM), ^14 C-phosphoenolpyruvate (1 mM, 1.2 mCi/mmol), ammonium molybdate (0.1 mM), potassium fluoride (5 mM), in 50 mM HEPES-KOH, pH 7, was added 10 μl of the extract and incubated at 25° C. for 2 mins. […] The radioactivity of the eluent was monitored using a Radiometric Flo-One Beta Instrument. […] The EPSP synthase activity was determined by measurement of the conversion of ^14 C-PEP to ^14 […], both of which are resolved under the above conditions of chromatography. The protein content of the extract was determined by the method of Bradford (Biorad Labs, Calif.). […]

Assay [4] relates to wild-type (non-transformed) petunia plants. The assay can be described thus: Plant response to glyphosate spraying, control plants. It counts as in vivo. As to conditions: 0.8 #/acre acid equivalent, isopropylamine salt sprayed. How it is done: as §1, §2, §3, §4
In assay [5] the test system is tobacco plants transformed with wild-type EPSP synthase gene. The assay can be described thus: Relative effect of glyphosate spray on transformed tobacco, wild-type gene. Also noted: key: 0 = total kill, 10 = normal unsprayed plant. As to conditions: WT. Format: in vivo, Nicotiana tabacam CV H425. The text has this:
A culture of A. tumefaciens cells containing pMON567/pGV3111-SE was contacted with leaf disks taken from tobacco plants (Nicotiana tabacam CV H425) as described by Horsch (1985). The Agrobacterium cells inserted the mutant EPSP synthase gene into the chromosomes of the plant cells. Plant cells resistant to kanamycin were selected and regenerated into differentiated plants by the procedure of Horsch (1985).
Progeny of these plants were propagated and grown to a rosette diameter of about 10 cm corresponding to a plant age of about four weeks. The plants were sprayed with glyphosate at levels corresponding to 2.0 and 3.6 pounds acid equiv./acre. […] The effect was translated to a numerical scale of 0-10 in which 0 represents total kill and 10 is the normal, unsprayed plant. […] The values represent the best transformant for both wild-type EPSP synthase and glyphosate-tolerant EPSP synthase genes.

pIC50: −log10 of the molar value. “Also recorded” adds a separate entry of the source.

T1 sequence (P10748 77-520): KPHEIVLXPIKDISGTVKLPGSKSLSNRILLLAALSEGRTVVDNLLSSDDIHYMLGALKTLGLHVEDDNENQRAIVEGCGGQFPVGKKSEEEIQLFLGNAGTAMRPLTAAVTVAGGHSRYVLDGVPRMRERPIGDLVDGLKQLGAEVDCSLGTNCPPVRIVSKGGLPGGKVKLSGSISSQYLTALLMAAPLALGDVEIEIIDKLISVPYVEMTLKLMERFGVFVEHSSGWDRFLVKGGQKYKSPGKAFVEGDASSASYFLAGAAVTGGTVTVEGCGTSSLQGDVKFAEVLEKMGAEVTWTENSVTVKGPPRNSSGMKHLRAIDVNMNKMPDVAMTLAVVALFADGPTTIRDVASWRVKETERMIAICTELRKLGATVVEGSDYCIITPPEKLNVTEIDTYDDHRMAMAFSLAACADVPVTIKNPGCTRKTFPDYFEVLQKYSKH

The pIC50 is the negative decadic logarithm of the IC50, by convention in mol/L. Take `O=C(O)CNCP(=O)(O)O` [glyphosate, N-phosphonomethylglycine]: in assay [1], the viability at 500 µM is under 1%. The effect on callus in the assay with wild type callus was “kills”. The “growth in the presence of glyphosate” value in the assay with E coli 11303 SM-1 is listed as “could grow rapidly”. Moreover, the “Visual Appearance” value was “growing well; also recorded: healthy and viable” in assay [2]; “completely dead; also recorded: killed” in assay [4]. Moreover, in assay [3], the pIC50 was 4.92. Moreover, the “Relative effect of glyphosate (0 total kill, 10 no effect)” value in assay [5] (0.4 Pounds/Acre, Day 7, best transformant) was 6.0; in assay [5] (0.4 Pounds/Acre, Day 14, best transformant) it was 7.0; in assay [5] (0.4 Pounds/Acre, Day 28, best transformant) it was 9.0; in assay [5] (2.0 Pounds/Acre, Day 7, best transformant) it was 5.0; in assay [5] (2.0 Pounds/Acre, Day 14, best transformant), 1.8; in assay [5] (2.0 Pounds/Acre, Day 28, best transformant), 0.8. For the same compound, the “Relative effect of glyphosate (0 total kill, 10 no effect)” value in assay [5] (3.6 Pounds/Acre, Day 7, best transformant) is 5.0; in assay [5] (3.6 Pounds/Acre, Day 14, best transformant), 1.7; in assay [5] (3.6 Pounds/Acre, Day 28, best transformant), 0.8.
